Measured values taken from US20250170065A1, “THERAPEUTIC COMPOUNDS, FORMULATIONS, AND USE THEREOF” (priority 2022, published 2025).

Tests used:
Solubility of TTI-101 = format: physicochemical
Text: The compound of Formula (I) (also referred to as TTI-101) is highly insoluble (“brick dust”). […] Furthermore, the compound of Formula (I) has a crystalline structure with high crystal-lattice energy, contributing to rapid precipitation or crystallization of the compound from solution. Its low solubility and high crystallinity have contributed to various difficulties in preparing formulations that are suitable for administration in human subjects. Current formulations are liquid formulations delivered via capsules. For example, a formulation of the compound of formula (I) dissolved in 60:40 Labrasol®/PEG400 and encapsulated into a hard gelatin capsule (unit dose: 36 mg), while showing encouraging results in 3 dose cohorts, was prevented from advancing to a fourth patient cohort (25.6 mg/kg/day as 12.8 mg/kg twice daily (BID) doses) because of an unacceptably high pill burden. For example, a 70 kg subject in Cohort 4 would require […] per day split into BID doses. […]

[1] = in vivo
Experimental: Particle size reduction for TTI-101 by micronization and nano-milling provided poor bioavailability (e.g., 10-20 times lower bioavailability than a solution of TTI-101). Hot melt extrusion (HME) was used and the resulting dispersions were evaluated using DSC miscibility, DSC extrudability and rheology studies. Polymer systems tried include: Soluplus; Soluplus+Kolliphor RH40; Soluplus+Vitamin E TPGS; and PVPVA64+Kolliphor RH40.

- solubility in aqueous solutions (Solubility of TTI-101): insoluble
- solubility in most solvents (Solubility of TTI-101): relatively low solubility
- bioavailability lower than a solution of TTI-101 [1]: 10-20 times
SMILES: COc1ccc(S(=O)(=O)Nc2cc(-c3c(O)ccc4ccccc34)c(O)c3ccccc23)cc1 [TTI-101]
